For experiment [1], the system named is human T-cell lymphoblastic leukemia CCRF-CEM/Taxol xenograft. The experiment can be described thus: CCRF-CEM/Taxol xenograft in nude mice. In kind it is in vivo.
Experiment [2] deals with lymphoma lines (SKIDLBCL and RL). The experiment can be described thus: XTT cell proliferation, lymphoma lines. In kind it is cell-based, human. In general terms: Tetrazolium dyes change colour on reduction, which living cells bring about.

A word on the IC50: it is the concentration needed to halve the response being measured. Low values mean greater potency, high ones weaker potency.

Where “and” joins values, the source holds several entries; their conditions need not be identical. Identical values can stand only once.

`C/C(=C\c1csc(C)n1)[C@@H]1C/C=C(/C(F)(F)F)C/C=C/[C@H](C)[C@H](O)[C@@H](C)C(=O)C(C)(C)[C@@H](O)CC(=O)O1` [Compound 29, 26-trifluoro-trans-9,10-dehydro-12,13-desoxyepothilone B]: the “Final tumor suppression on D34” value in experiment [1] (15 mg/kg) is 98.8%. Moreover, the “Tumor disappearance (mice)” value in experiment [1] (15 mg/kg, 6 hr-i.v. infusion, Q2Dx7 then Q2Dx5) was 1 out of 4; in experiment [1] (15 mg/kg, 6 hr-i.v. infusion, Q2Dx7 then Q2Dx5, listed as 26-F3-9,10-deH-dEpo B) it was 1/3; in experiment [1] (15 mg/kg, 6 hr-i.v. infusion, Q2Dx7 then Q2Dx5, listed as Fludelone), 1/3; in experiment [1] (30 mg/kg Q2Dx7, 6 hr-i.v. infusion (first cycle)), 2 out of 4; in experiment [1] (30 mg/kg, 6 hr-i.v. infusion, Q2Dx7 then Q2Dx5, listed as 26-F3-9,10-deH-dEpo B), “¾”; in experiment [1] (30 mg/kg, 6 hr-i.v. infusion, Q2Dx7 then Q2Dx5, listed as Fludelone) it was 3 out of 4 and 3/4. For the same compound, the Final tumor suppression in experiment [1] (30 mg/kg, Q2Dx7 then Q2Dx5) amounted to 99.8%. Further, the “Inhibitory doses in two NHL lines relative to doses effective in MM” value in experiment [2] is 5-10 fold. For the same compound, in experiment [2] (Homo sapiens, XTT), the IC50 lay within 60 to 80 nM.
